US10654845B2, “2-(het)aryl-substituted fused bicyclic heterocycle derivatives as pesticides” (BAYER CROPSCIENCE AKTIENGESELLSCHAFT, priority 2015, dated 2020)

Assays:
Ctenocephalides felis [1] = assay: Ctenocephalides felis oral test; assay type: in vivo; conditions: 100 ppm, after 2 days
Description: Ctenocephalides felis-Oral Test
(§1) Solvent: dimethyl sulphoxide
To produce a suitable preparation of active compound, 10 mg of active compound are mixed with 0.5 ml of dimethyl sulphoxide. Dilution with citrated cattle blood gives the desired concentration.
About 20 unfed adult cat fleas (Ctenocephalides felis) are placed into a chamber which is closed at the top and bottom with gauze. A metal cylinder whose bottom end is closed with parafilm is placed onto the chamber. The cylinder contains the blood/active compound preparation, which can be imbibed by the fleas through the parafilm membrane.
After 2 days, the kill in % is determined. 100% means that all of the fleas have been killed; 0% means that none of the fleas have been killed.

Boophilus microplus = Boophilus microplus injection test; assay type: in vivo; conditions: 20 μg/animal, assessed after 7 days
Description: Boophilus microplus-Injection Test
as §1
To produce a suitable preparation of active compound, 10 mg of active compound are mixed with 0.5 ml of solvent and the concentrate is diluted with solvent to the desired concentration.
1 μl of the active compound solution is injected into the abdomen of 5 engorged adult female cattle ticks (Boophilus microplus). The animals are transferred into dishes and kept in a climate-controlled room.
Efficacy is assessed after 7 days by laying of fertile eggs. Eggs which are not visibly fertile are stored in a climate-controlled cabinet until the larvae hatch after about 42 days. An efficacy of 100% means that none of the ticks has laid any fertile eggs; 0% means that all the eggs are fertile.

Lucilia cuprina = Lucilia cuprina test; assay type: in vivo; conditions: 100 ppm, after 2 days, L1 larvae
Description: as §1
(§2) To produce a suitable preparation of active compound, 10 mg of active compound are mixed with 0.5 ml of dimethyl sulphoxide, and the concentrate is diluted with water to the desired concentration.
About 20 L1 larvae of the Australian sheep blowfly (Lucilia cuprina) are transferred into a test vessel containing minced horsemeat and the active compound preparation of the desired concentration.
After 2 days, the kill in % is determined. 100% means that all the larvae have been killed; 0% means that no larvae have been killed.

[2] = log P by HPLC on reversed-phase column (C18), EEC Directive 79/831 Annex V.A8; conditions: for chromatographic logP: reversed-phase HPLC column (C18)
Description: Called log P (HCOOH) in the table.
Called log P (neutral) in the table.

Myzus persicae [3] = assay: Myzus persicae spray test (bell pepper plants); assay type: in vivo; conditions: 100 ppm, after 6 days
Description: Myzus persicae Spray Test
Solvent: 7 parts by weight of dimethylformamide
Emulsifier: alkylaryl polyglycol ether
To produce a suitable preparation of active compound, 1 part by weight of active compound is dissolved using the stated parts by weight of solvent and made up with water containing an emulsifier concentration of 1000 ppm until the desired concentration is attained. To produce further test concentrations, the preparation is diluted with emulsifier-containing water. If the addition of ammonium salts or/and penetrants is required, these are each added in a concentration of 1000 ppm to the formulation solution.
Bell pepper plants (Capsicum annuum) severely infested with the green peach aphid (Myzus persicae) are treated by spraying with the active compound preparation in the desired concentration.
After 6 days, the kill in % is determined. 100% means that all of the aphids have been killed; 0% means that none of the aphids have been killed.

Musca domestica = Musca domestica test; assay type: in vivo; conditions: 100 ppm, after 2 days, adult houseflies
Description: as §1, §2
Vessels containing a sponge treated with sugar solution and the active compound preparation of the desired concentration are populated with 10 adult houseflies (Musca domestica).
After 2 days, the kill in % is determined. 100% means that all of the flies have been killed; 0% means that none of the flies have been killed.

Phaedon cochleariae = Phaedon cochleariae spray test; assay type: in vivo; conditions: 500 g/ha, after 7 days, beetle larvae killed; for pest or weed control at 500 g/ha: Phaedon cochleariae, 168 h, read-out: efficacy in %
Summary of the method: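 Compound dissolved in acetone/dimethylformamide and diluted with water containing 1000 ppm alkylaryl polyglycol ether emulsifier to test concentrations, applied as a spray. Efficacy (% beetle larvae killed) assessed after 7 days.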

Ctenocephalides felis [4] = assay: Ctenocephalides felis in vitro contact tests with adult cat fleas; assay type: in vivo; conditions: 5 μg/cm^2 (500 g/ha), after 48 h
Description: Ctenocephalides felis—In Vitro Contact Tests with Adult Cat Fleas
For the coating of the test tubes, 9 mg of active compound are first dissolved in 1 ml of acetone p.a. and then diluted to the desired concentration with acetone p.a. 250 μl of the solution are distributed homogeneously on the inner walls and the base of a 25 ml test tube by turning and rocking on an orbital shaker (rocking rotation at 30 rpm for 2 h). With 900 ppm active compound solution and internal surface 44.7 cm^2, given homogeneous distribution, an area-based dose of 5 μg/cm^2 is achieved.
After the solvent has evaporated off, the tubes are populated with 5-10 adult cat fleas (Ctenocephalides felis), sealed with a perforated plastic lid and incubated in a horizontal position at room temperature and ambient humidity. After 48 h, efficacy is determined. To this end, the test tubes are stood upright and the fleas are knocked to the base of the tube. Fleas which remain motionless at the base or move in an uncoordinated manner are considered to be dead or moribund.
100% efficacy means that all the fleas were dead or moribund. 0% efficacy means that no fleas were harmed.

Spodoptera frugiperda = Spodoptera frugiperda spray test; assay type: in vivo; conditions: 500 g/ha, after 7 days, caterpillars killed
Description: Spodoptera frugiperda-Spray Test Solvent: 78.0 parts by weight of acetone • • 1.5 parts by weight of dimethylformamide Emulsifier: alkylaryl polyglycol ether […] To produce further test concentrations, the preparation is diluted with emulsifier-containing water. Leaf disks of maize (Zea mays) are sprayed with an active compound preparation of the desired concentration and, after drying, populated with caterpillars of the armyworm (Spodoptera frugiperda).

Meloidogyne incognita = Meloidogyne incognita test; assay type: in vivo; conditions: 20 ppm, after 14 days, formation of galls
Description: Meloidogyne incognita-Test
Solvent: 125.0 parts by weight of acetone
To produce a suitable preparation of active compound, 1 part by weight of active compound is mixed with the stated amount of solvent and the concentrate is diluted with water to the desired concentration.
Vessels are filled with sand, active compound solution, an egg/larvae suspension of the southern root-knot nematode (Meloidogyne incognita) and lettuce seeds. The lettuce seeds germinate and the plants develop. The galls develop on the roots.
After 14 days, the nematicidal efficacy in % is determined by the formation of galls. 100% means that no galls were found; 0% means that the number of galls on the treated plants corresponds to the untreated control.

[5] = test system: Aedes aegypti strain MONHEIM; assay: whole plant or invertebrate; assay type: in vivo; conditions: read-out: mortality in %
Description: Aedes Test (AEDSAE Surface Treatment)
(§3) Solvent: acetone+2000 ppm rapeseed oil methyl ester (RME)
(§4) To produce an appropriate active compound formulation, the active compound is dissolved in the solvent (2 mg/ml). The active compound formulation is pipetted onto a glazed tile and, after it has dried off, adult mosquitoes of the species Aedes aegypti strain MONHEIM are placed onto the treated tile. The exposure time is 30 minutes.
(§5) 24 hours after contact with the treated surface, mortality in % is determined. 100% means that all mosquitoes have been killed; 0% means that none of the mosquitoes have been killed.

[6] = test system: Anopheles gambiae strain RSPH (homozygot kdr); assay: Anopheles test (ANPHGB surface treatment); assay type: in vivo; conditions: 24 hours after contact
Description: Anopheles Test (ANPHGB Surface Treatment)
as §3
as §4, with “Anopheles gambiae” for “Aedes aegypti”, “RSPH (homozygot kdr)” for “MONHEIM”
as §5

[7] = test system: Anopheles funestus strain FUMOZ-R; assay: whole plant or invertebrate; assay type: in vivo; conditions: read-out: mortality in %
Description: Anopheles Test (ANPHFU Surface Treatment)
as §3
as §4, with “Anopheles funestus” for “Aedes aegypti”, “FUMOZ-R (Hunt et al., Med Vet Entomol. 2005 September; 19(3):271-5)” for “MONHEIM”
as §5

Myzus persicae [8] = assay: Myzus persicae spray test (Chinese cabbage leaf discs); assay type: in vivo; conditions: Myzus persicae, foliar, 144 h; 500 g/ha, after 6 days, aphids killed; read-out: efficacy in %
Summary of the method: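 Chinese cabbage leaf discs infested with all stages of green peach aphid were sprayed with compound in acetone/DMF diluted with water containing 1000 ppm emulsifier. Efficacy in % was scored after 6 days, where 100% means all aphids killed and 0% none.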

[9] = pH 2.7, logP-acidic, LC-MS acidic range, pH 2.7 (HCOOH), C18, 55° C.
[10] = pH 7.8, log P (neutral), preparation examples, neutral range, pH 7.8
[11] = pH 7.8, logP-neutral, LC-MS neutral range, pH 7.8, C18, 55° C.

chromatographic logP [2, 9]	chromatographic logP [2, 10]	chromatographic logP [2, 11]	Compound	kill in % (Ctenocephalides felis [1]) [%]	efficacy (laying of fertile eggs) (Boophilus microplus) [%]	kill in % (Lucilia cuprina) [%]	kill in % (Myzus persicae [3]) [%]	pest or weed control at 500 g/ha (Phaedon cochleariae) [%]	further results
–	–	–	CCS(=O)(=O)c1ccc(NC(=O)C2CC2)nc1-c1nc2cc(C(F)(F)F)ncc2n1C [Example 22]	100	80	90	100	–	logP-acidic ([2]; pH 2.7): 2.43; kill in % (Musca domestica): 100%; efficacy in % (Phaedon cochleariae): 100%; efficacy (dead or moribund fleas) (Ctenocephalides felis [4]): 100%
3.33	3.24	3.24	CCS(=O)(=O)c1ccc(/C=C/C2CC2)nc1-c1nc2cc(C(F)(F)F)ncc2n1C [Example 40, 2-{6-[(E)-2-Cyclopropylvinyl]-3-(ethylsulphonyl)pyridin-2-yl}-3-methyl-6-(trifluoromethyl)-3H-imidazo[4,5-c]pyridine]	–	–	–	100	100	efficacy in % (Spodoptera frugiperda): 100%
1.63	1.62	1.62	CCS(=O)(=O)c1ccc(N)nc1-c1nc2cc(C(F)(F)F)ncc2n1C [Example 14, 5-(Ethylsulphonyl)-6-[3-methyl-6-(trifluoromethyl)-3H-imidazo[4,5-c]pyridin-2-yl]pyridine-2-amine]	100	80	100	–	100	nematicidal efficacy in % (Meloidogyne incognita): 90%; mortality at 20 mg/m2 [5]: 80 to 100%; mortality at 100 mg/m2 [5]: 80 to 100%; mortality at 20 mg/m2 ([6]; 20 mg/m^2, 30 minutes exposure): 80 to 100%; mortality at 100 mg/m2 ([6]; 100 mg/m^2, 30 minutes exposure): 80 to 100%; mortality at 20 mg/m2 [7]: 80 to 100%; mortality at 100 mg/m2 [7]: 80 to 100%; pest or weed control at 500 g/ha (Myzus persicae [8]): 90%
